{"source": "patent US7135292B2", "about": "“Analysis and modification of gene expression in marine invertebrate cells” (Harbor Branch Oceanographic Institution, Inc., priority 2002, dated 2006)", "system": "Axinella corrugata cell cultures", "test": "Human-sequence microarray (Gene Filters) analysis of gene expression, PHA-treated vs untreated sponge cell cultures", "type": "cell-based", "text": "Sponge Cells. Cells were obtained from cryopreserved stocks at Harbor Branch Oceanographic Institution. All cells were derived from Axinella corrugata specimens collected in the waters of Florida, the Bahamas, and the Caribbean Sea, and were cryopreserved according to Pomponi et al. (Pomponi et al. 1997b supra). This sponge is relatively common and easy to collect, amenable to culture efforts, and produces the bioactive compound, stevensine, in vitro (Pomponi et al. 1997b supra). Enriched fractions of dissociated sponge cells were prepared, cryopreserved, and thawed according to previously published methods (Pomponi et al. 1997b supra). Cells were incubated at 22–25° C. in a growth medium consisting of a modified and supplemented commercial formulation (Willoughby and Pomponi 2000 supra). The length of the incubation period was based on my unpublished observation of elevated DNA and protein contents (9%, P=0.034, and 9%, P=0.038, respectively) in PHA-treated cultures, according to fluorescent assays of 6 replicate comparisons (Willoughby and Pomponi 2000 supra). Since the effects were observed between 6 and 18 hours after treatment, cells were cultured for 12-hour periods representing the center point of the period of observed changes. Two sets of cultures were incubated with approximately 2×10^8 cells per T-75 flask—a control set and an experimental set treated with 1.5% phytohemagglutinin (PHA) (Life Technologies, M-form).\nRNA Isolation. RNA isolation was performed on unrinsed, pelleted cells. Pellets were quickly frozen in a dry ice alcohol bath and stored at −70° C. until RNA isolation. The Qiagen RNeasy® protocol was used, with the following modifications. Samples were disrupted with a micropestle or homogenized by the rotor-stator method, using twice the recommended volume of lysis solution. Prior to column loading, samples were centrifuged through a Qiashredder® column to complete homogenization and remove insoluble material. Supernatant was collected for use in the rest of the protocol. During the first wash step, samples were incubated on the column with DNase 1 (Qiagen or Ambion) for 15 minutes. After the final wash, samples were incubated on the column with the RNase free elution water for 15 minutes prior to elution. Sub-samples were diluted 20× and quantified on a Genequant® spectrophotometer.\ncDNA Labeling. Sub-samples of the isolated total RNA (8 μl) were primed with oligo dT (10–20 mer) (Research Genetics, Inc.) for 10 minutes at 70° C., then briefly chilled on ice, followed by addition of 2 volumes of RT cocktail based upon the Life Technologies Superscript II® protocol (containing dATP, dGTP, dTTP, and α-^33P dCTP [NEN Easy Tides®, 3000 Ci/mmol]). The mixture was incubated for 90 minutes at 37° C., and diluted to 100 μl for purification on a Bio-Spin column (Boi-Rad) according to the Gene Filter® (Research Genetics, Inc.) recommended protocol. The resultant labeled probes were then denatured for 3 minutes in a boiling water bath prior to incorporation into the hybridization solution.\nMicroarrays. Research Genetics Gene Filters®, version 211, were employed in this study. These microarrays feature over 4000 distinct sequence-verified genes spotted onto a 5×7 cm nylon membrane. The DNA at each spot represents approximately 1 kb from the 3′ end of the gene. The microarrays also include spots of total genomic DNA (see FIG. 5). The 211 series is constructed from human sequences. A cross-referenced database listing of all the genes represented on the array is available at http://www.resgen.com. The 2 genes referenced in this work carry the I.M.A.G.E. Consortium (Lennon, G. G., C. Auffray, M. Polymeropoulos and M. B. Soares 1996, Genomics 33:151–152), Clone IDs 81408 (calcineurin B) and 858292 (cdc10).\nHybridization. […]", "data": [{"substance": "phytohemagglutinin [PHA]", "values": [{"measurement": "Ratio, Small inducible cytokine A11 (eotaxin)", "setting": "No. 56, PHA treated/untreated, 12 h", "value": 0.493}, {"measurement": "Ratio, Major histocompatibility complex, class II, DR beta 5", "setting": "No. 57, PHA treated/untreated, 12 h", "value": 0.255}, {"measurement": "Ratio, Evi-1", "setting": "No. 58, PHA treated/untreated, 12 h", "value": 0.159}, {"measurement": "Ratio, Homo sapiens thrombospondin 3 (THBS3) gene, complete cds", "setting": "No. 59, PHA treated/untreated, 12 h", "value": 0.019}, {"measurement": "Ratio, RhoE", "setting": "No. 60, PHA treated/untreated, 12 h", "value": 0.312}, {"measurement": "Ratio, Human bone morphogenetic protein-3b", "setting": "No. 61, PHA treated/untreated, 12 h", "value": 0.209}, {"measurement": "Ratio, Vitamin K-dependent gamma-B74carboxylase", "setting": "No. 62, PHA treated/untreated, 12 h", "value": 2.101}, {"measurement": "Ratio, Homo sapiens cdc14 homolog mRNA, complete cds", "setting": "No. 63, PHA treated/untreated, 12 h", "value": 11.905}, {"measurement": "Ratio, Homo sapiens, alpha-1 (VI) collagen", "setting": "No. 64, PHA treated/untreated, 12 h", "value": 2.509}, {"measurement": "Ratio, Homo sapiens BAI 3 mRNA, complete cds", "setting": "No. 65, PHA treated/untreated, 12 h", "value": 3.228}, {"measurement": "Ratio, Human TFIIB related factor hBRF (HBRF) mRNA, complete cds", "setting": "No. 66, PHA treated/untreated, 12 h", "value": 0.118}, {"measurement": "Ratio, Human capping protein alpha mRNA, partial cds", "setting": "No. 67, PHA treated/untreated, 12 h", "value": 2.650}, {"measurement": "Ratio, Human melanocyte-specific gene 1 (msg1) mRNA, complete cds", "setting": "No. 68, PHA treated/untreated, 12 h", "value": 0.390}, {"measurement": "Ratio, Ras-like protein TC21", "setting": "No. 69, PHA treated/untreated, 12 h", "value": 2.737}, {"measurement": "Ratio, Homo sapiens mRNA for inositol 1,4,5-trisphosphate 3-kinase isoenzyme, partial cds", "setting": "No. 70, PHA treated/untreated, 12 h", "value": 0.494}, {"measurement": "Ratio, Homo sapiens clone 23619 phosphoprotein mRNA, partial cds", "setting": "No. 71, PHA treated/untreated, 12 h", "value": 0.296}, {"measurement": "Ratio, Human lysosomal glycosylasparaginase (AGA) gene", "setting": "No. 72, PHA treated/untreated, 12 h", "value": 0.317}, {"measurement": "Ratio, COUP transcription factor", "setting": "No. 73, PHA treated/untreated, 12 h", "value": 0.080}, {"measurement": "Ratio, Human mRNA for prepro cortistatin like peptide, complete cds", "setting": "No. 74, PHA treated/untreated, 12 h", "value": 3.616}, {"measurement": "Ratio, Homo sapiens mRNA for repressor protein, partial cds", "setting": "No. 75, PHA treated/untreated, 12 h", "value": 0.483}, {"measurement": "Ratio, N-Terminal acetyltransferase complex ARD1 subunit homolog + B88", "setting": "No. 76, PHA treated/untreated, 12 h", "value": 0.275}, {"measurement": "Ratio, Human alpha-tubulin isotype H2-alpha gene, last exon", "setting": "No. 77, PHA treated/untreated, 12 h", "value": 0.264}, {"measurement": "Ratio, Human alpha-cardiac actin gene, 5′ flank and", "setting": "No. 78, PHA treated/untreated, 12 h", "value": 0.402}, {"measurement": "Ratio, Homo sapiens MAD-related gene SMAD7 (SMAD7) mRNA, complete cds", "setting": "No. 79, PHA treated/untreated, 12 h", "value": 3.829}, {"measurement": "Ratio, Human ETS2 oncogene", "setting": "No. 80, PHA treated/untreated, 12 h", "value": 2.260}, {"measurement": "Ratio, Human mRNA for alpha-catenin, complete cds", "setting": "No. 81, PHA treated/untreated, 12 h", "value": 0.147}, {"measurement": "Ratio, Human mRNA for TESK1, complete cds", "setting": "No. 82, PHA treated/untreated, 12 h", "value": 0.282}, {"measurement": "Ratio, Homo sapiens DnaJ protein (HSPF2) mRNA, complete cds", "setting": "No. 83, PHA treated/untreated, 12 h", "value": 0.206}, {"measurement": "Ratio, Keratin, type I cytoskeletal 20", "setting": "No. 84, PHA treated/untreated, 12 h", "value": 0.283}, {"measurement": "Ratio, Homo sapiens FMRFamide-related prepropeptide mRNA, complete cds", "setting": "No. 85, PHA treated/untreated, 12 h", "value": 2.156}, {"measurement": "Ratio, H. sapiens mRNA for p40", "setting": "No. 86, PHA treated/untreated, 12 h", "value": 7.841}, {"measurement": "Ratio, Homo sapiens mRNA for p115, complete cds", "setting": "No. 87, PHA treated/untreated, 12 h", "value": 0.477}, {"measurement": "Ratio, Factor VIII intron 22 protein", "setting": "No. 88, PHA treated/untreated, 12 h", "value": 0.490}, {"measurement": "Ratio, Human RNA polymerase II subunit hsRPB7 mRNA, complete cds", "setting": "No. 89, PHA treated/untreated, 12 h", "value": 0.441}, {"measurement": "Ratio, Homo sapiens mRNA for osteomodulin, complete cds", "setting": "No. 90, PHA treated/untreated, 12 h", "value": 0.354}, {"measurement": "Ratio, Hemoglobin zeta chain", "setting": "No. 91, PHA treated/untreated, 12 h", "value": 11.817}, {"measurement": "Ratio, Human cartilage-specific homeodomain protein Cart-1 mRNA, complete cds", "setting": "No. 92, PHA treated/untreated, 12 h", "value": 0.201}, {"measurement": "Ratio, Human cytochrome bc-1 complex core protein II mRNA, complete cds", "setting": "No. 93, PHA treated/untreated, 12 h", "value": 0.325}, {"measurement": "Ratio, H. sapiens mRNA for Ndr protein kinase", "setting": "No. 94, PHA treated/untreated, 12 h", "value": 0.435}, {"measurement": "Ratio, Human HEM45 mRNA, complete cds", "setting": "No. 95, PHA treated/untreated, 12 h", "value": 0.114}, {"measurement": "Ratio, C-1-tetrahydrofolate synthase, cytoplasmic", "setting": "No. 96, PHA treated/untreated, 12 h", "value": 2.966}, {"measurement": "Ratio, Homo sapiens mRNA for transducin (beta) like 1 protein", "setting": "No. 97, PHA treated/untreated, 12 h", "value": 0.091}, {"measurement": "Ratio, Human Bcl-2 related (Bfl-1) mRNA, complete cds", "setting": "No. 98, PHA treated/untreated, 12 h", "value": 0.472}, {"measurement": "Ratio, H. sapiens mRNA for InsP3 5-phosphatase", "setting": "No. 99, PHA treated/untreated, 12 h", "value": 0.215}, {"measurement": "Ratio, H. sapiens mRNA for 17-beta-hydroxysteroid dehydrogenase", "setting": "No. 100, PHA treated/untreated, 12 h", "value": 0.432}, {"measurement": "Ratio, Ubiquitin carboxyl-terminal hydrolase isozyme L3", "setting": "No. 101, PHA treated/untreated, 12 h", "value": 0.388}, {"measurement": "Ratio, Human putative tRNA synthetase-like protein mRNA, complete cds", "setting": "No. 102, PHA treated/untreated, 12 h", "value": 0.493}, {"measurement": "Ratio, Human galectin-4 (GAL4) mRNA, complete cds", "setting": "No. 103, PHA treated/untreated, 12 h", "value": 0.443}, {"measurement": "Ratio, Glycylpeptide N-tetradecanoyl transferase", "setting": "No. 104, PHA treated/untreated, 12 h", "value": 0.354}, {"measurement": "Ratio, H. sapiens LDLC mRNA", "setting": "No. 105, PHA treated/untreated, 12 h", "value": 0.395}, {"measurement": "Ratio, Human CREB-binding protein (CBP) mRNA, complete cds", "setting": "No. 106, PHA treated/untreated, 12 h", "value": 0.210}, {"measurement": "Ratio, Human enigma gene, complete cds", "setting": "No. 107, PHA treated/untreated, 12 h", "value": 0.496}, {"measurement": "Ratio, Human FEZ2 mRNA, partial cds", "setting": "No. 108, PHA treated/untreated, 12 h", "value": 0.283}, {"measurement": "calcineurin down-regulated by the PHA treatment (microarray)", "setting": "approximately", "value": "2–5 fold"}, {"measurement": "cdc10 up-regulated by the PHA treatment (microarray)", "setting": "approximately", "value": "2–5 fold"}]}]}
